Measurements taken from patent publication US8227421B2, “Fluorinated GHRH antagonists” (University of Miami, priority 2009, dated 2012).

System: PC-3 human hormone-independent prostate cancer
Assay: Effect of treatment with GH-RH antagonists on PC-3 human prostate cancer xenografts in nude mice
Assay type: in vivo
Settings: male nude mice, s.c. PC-3 xenografts, 2 ug/day s.c.
Procedure: Male nude mice were implanted s.c. with 3 mm3 pieces of PC-3 human hormone-independent prostate cancer tissue on both flanks. When tumors reached a volume of approximately 50 mm3, the mice were divided into 14 experimental groups with 8 to 10 animals in each group and received single daily injections for 28 as follows: 1. Control (vehicle solution); 2. P-12211 (2 μg/day s.c.); 3. P-12307 (2 μg/day s.c.); 4. P-12317 (2 μg/day s.c.); 5. P-12408 (2 μg/day s.c.); 6. P-12409 (2 μg/day s.c.); 7. P-12457 (2 μg/day s.c.); 8. P-12473 (2 μg/day s.c.); 9. P-12479 (2 μg/day s.c.); 10. P-12600 (2 μg/day s.c.); 11. P-12601 (2 μg/day s.c.); 12. P-12602 (2 μg/day s.c.); 13. P-12603 (2 μg/day s.c.); and 14. P-12610 (2 μg/day s.c.).
The inhibitory effect of P-12473, P-12479, P-12600, P-12601, P-12602, and P-12610 were statistically significant (p<0.001).
Effect of Treatment with GH-RH Antagonists on PC-3 Human Prostate Cancer Xenografts in Nude Mice

## [PhAc^0-Tyr^1, D-Arg^2, Cpa^6, Ala^8, Har^9, Fpa5^10, His^11, Orn^12, Abu^15, His^20, Orn^21, Nle^27, D-Arg^28, Har^29, Ada^30]hGH-RH(1-30)NH2 [Peptide P-12610]
Single daily injections for 28
  Tumor Growth after 4 weeks (%): 474.98%
Single daily injections for 28, versus control
  Tumor growth inhibition after 4 weeks (%): 77.78%
